Columns and labels:
[1] = Chlorine dioxide retention in liquid treatment solution, low-pressure spray application method; type: physicochemical; details: for Average ClO2 loss in ppm (±STDEV): location A minus location C; for Average ClO2 concentration in ppm (±STDEV): spray, ambient 65-70 °F
Description: (§1) In this example, two methods for applying a liquid chlorine dioxide treatment solution were compared with a chlorine dioxide treatment solution having the same volume and initial chlorine dioxide concentration, and using a system with the same delivery rate. One method was a curtain delivery method and the other method was a low-pressure spray method.
(§2) For both the methods a 330-gallon tote was used as the source fluid reservoir. The tote was filled with about 75 gallons of fresh water and also contained submersible sump-pump that provided the fluid flow to the system. A 6.6 gallon per minute (GPM) rotameter was in line between the pump and the chlorine dioxide delivery system that delivered a concentrated solution of chlorine dioxide (˜1700 ppm) so as to make a liquid chlorine dioxide treatment solution containing an initial concentration (approximately 5 ppm) of chlorine dioxide. The delivery system sat over an aluminum sheet on a slight gradient, to provide a homogenous flow pathway of the treatment solution. The aluminum sheet allowed the treatment fluid to cascade back into the tote for recirculation. During experimentation, the rotameter was set to allow for approximately 4 GPM ([…]) of constant flow, achieved by slight pinching of a ball valve in line and downstream of the rotameter. The treatment solution was circulated through the system for a few minutes and if needed, additional concentrated solution was added to achieve the initial concentration (approximately 5 ppm chlorine dioxide) in the treatment solution before experimental runs commenced.
For the spray application, a series of nozzles were used to apply the treatment solution.
(§3) Each application method was tested in multiple runs in which the liquid chlorine dioxide treatment solution was maintained at a particular target temperature (approximately 120° F. (this is the high temperature curtain or spray as referred to in Table 3) or a temperature of 60-75° F. (this is the low temperature curtain or spray as referred to in Table 3)).
(§4) For the curtain application method, the fluid was sampled at four locations: (A) from the hose that delivered treatment solution into the trough, (B) where the fluid entered the trough (C) within the trough near the exit where fluid flowed out of the trough to form the curtain, (D) where the fluid of the curtain fell onto the belt. For the spray application, the fluid was sampled at three locations: (A) from the hose that delivered treatment solution into the sprayer nozzle, (B) from the fluid as it exited the sprayer nozzle, (C) where the fluid of the spray fell onto the belt.
(§5) Chlorine dioxide concentrations were determined using the Palintest ChlordioX Plus device in accordance with the manufacturer's instructions.

[2] = Chlorine dioxide retention in liquid treatment solution, curtain application method; type: physicochemical; details: for Average ClO2 loss in ppm (±STDEV): location A minus location D; for Average ClO2 concentration in ppm (±STDEV): curtain, ambient 65-70 °F
Description: as §1, §2
For the curtain application, a rain gutter was modified to serve as a trough for the fluid to fill into. The front wall of the trough was modified; it was slightly shorter and was rounded to achieve laminar or predominantly laminar flow of the fluid over the wall of the trough and down over the target belt (belt to be used for moving eggs or other products to be treated with the treatment solution). The trough also contained pieces of plastics filter media (a type of baffle) that converted the turbulent flow of the trough being filled to more homogenous, laminar flow allowing a sheer curtain or waterfall effect to be achieved consistently across the entire length of the trough, such that the curtain fell onto the target belt. […] The curtain was about 11″ in height and approximately 2-2.5 feet wide.
as §3, §4, §5

With `[O][Cl+][O-]` [ClO2, chlorine dioxide] the “Average ClO2 loss in ppm (±STDEV)” value ([1]; Spray with high temperature (approximately 120 °F)) was 3.24 ± 0.67 ppm, the “Average ClO2 loss in ppm (±STDEV)” value ([1]; Spray with low temperature (60-75 °F)) was 1.44 ± 0.38 ppm and the “Average ClO2 concentration in ppm (±STDEV)” value (from here on “Average ClO2 concentration”) ([1]; treatment fluid 60-70 °F, location A (hose delivering treatment solution into sprayer nozzle)) was 4.86 ± 0.54 ppm. The “Average ClO2 concentration” value ([1]; treatment fluid 60-70 °F, location B (fluid as it exited the sprayer nozzle)) was 4.34 ± 0.71 ppm, the “Average ClO2 concentration” value ([1]; treatment fluid 60-70 °F, location C (where spray fell onto the belt)) was 3.43 ± 0.61 ppm and the “Average ClO2 concentration” value ([1]; treatment fluid 110-120 °F, location A (hose delivering treatment solution into sprayer nozzle)) was 5.28 ± 0.58 ppm. For the same compound, the “Average ClO2 concentration” value ([1]; treatment fluid 110-120 °F, location B (fluid as it exited the sprayer nozzle)) was 3.57 ± 0.53 ppm, the “Average ClO2 concentration” value ([1]; treatment fluid 110-120 °F, location C (where spray fell onto the belt)) was 2.04 ± 0.45 ppm and the “Average ClO2 loss in ppm (±STDEV)” value ([2]; Curtain with high temperature (approximately 120 °F)) was 1.95 ± 0.58 ppm. The “Average ClO2 loss in ppm (±STDEV)” value ([2]; Curtain with low temperature (60-75 °F)) was 1.37 ± 0.27 ppm, the “Average ClO2 concentration” value ([2]; treatment fluid 65-75 °F, location A (hose delivering treatment solution into trough)) was 4.88 ± 0.87 ppm and the “Average ClO2 concentration” value ([2]; treatment fluid 65-75 °F, location B (where fluid entered the trough)) was 4.91 ± 0.83 ppm. The “Average ClO2 concentration” value ([2]; treatment fluid 65-75 °F, location C (within trough near the exit)) was 4.39 ± 0.79 ppm, the “Average ClO2 concentration” value ([2]; treatment fluid 65-75 °F, location D (where curtain fell onto the belt)) was 3.51 ± 0.68 ppm and the “Average ClO2 concentration” value ([2]; treatment fluid 110-120 °F, location A (hose delivering treatment solution into trough)) was 5.28 ± 0.59 ppm. The “Average ClO2 concentration” value ([2]; treatment fluid 110-120 °F, location B (where fluid entered the trough)) was 4.70 ± 0.28 ppm, the “Average ClO2 concentration” value ([2]; treatment fluid 110-120 °F, location C (within trough near the exit)) was 4.51 ± 0.52 ppm and the “Average ClO2 concentration” value ([2]; treatment fluid 110-120 °F, location D (where curtain fell onto the belt)) was 3.34 ± 0.58 ppm.
